Tests used:
[1] = SOD activity, xanthine/xanthine oxidase with cytochrome C as acceptor (Example 2); type: biochemical; conditions: for SOD: relative to C7 (C7 = 100)
Outline: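 Superoxide was generated by 120 µM xanthine and 0.2 U/ml xanthine oxidase in 50 mM sodium phosphate pH 7.8 at 27 °C, with salen manganese compounds at ≥4 concentrations in duplicate.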

[2] = Peroxidase activity with t-BHP as substrate, ABTS oxidation; type: biochemical
Method: Peroxidase activity was assayed by monitoring the hydrogen peroxide-dependent oxidation of 2,2′-azino-bis(3-ethylbenzthiazoline-6) sulfonic acid (ABTS) spectrophotometrically. Standard assay mixtures consisted of 50 mM sodium phosphate, pH 8.1, 0.9% sodium chloride, 0.5 mM ABTS, and H2O2 and salen manganese complex as indicated. Where indicated, 50 mM sodium phosphate buffers of pH 6.0 or pH 7.1 were substituted. Assays were conducted at 27±0.2° C. ABTS oxidation was monitored at 740 or 500 nm to eliminate interference by the salen manganese complexes, many of which absorb in the vicinity of the λmax of oxidized ABTS, and to avoid absorbance values that exceeded the linear range of the spectrophotometer. The amount of oxidized ABTS was estimated using an Δε740 of 20,300 M^−1cm^−1 or an Δε500 of 3400 M^−1cm^−1 calculated based upon the published molar extinction coefficient oat 405 nm (36,800).
(In comparison, horseradish peroxidase utilized t-BHP with an ABTS oxidation rate that was about 5.4% of the rate with H2O2).

brain homogenates = assay: Iron-induced lipid peroxidation in brain homogenates (MDA); type: biochemical, rat
Method: Lipid peroxidation was induced by incubating a mixture consisting of 0.25 ml homogenate, 0.25 ml ASCF with test compounds, and 10 μM FeCl2 for 1 hr at 35° C. under an atmosphere equilibrated with O2:CO2(95:5). Following the incubation, 0.1 ml of the sample was extracted with trichloroacetic acid and analyzed for thiobarbituric acid reactive material as described previously, using authentic malonyldialdehyde (MDA) as a standard.

[3] = system: Human dermal fibroblasts (HF cells); assay: Cell protection assay, glucose/glucose oxidase toxicity, XTT; type: cell-based; conditions: for protection against glucose and glucose oxidase: glucose oxidase 0.019 units/ml
Outline: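 Confluent HF fibroblasts (passage 5–6) were incubated 18 h at 37 °C with test compounds plus glucose oxidase (0.019 units/ml) in DMEM containing 4.5 g/l glucose, a reproducibly lethal level. Viability was read by XTT after 2 h as absorbance at 490 nm (reference 655 nm), relative to untreated and cell-free blanks.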

SMILES	SOD activity (in words) [1]	SOD [1]	ABTS oxidation rate with t-BHP, percent of rate with H2O2 ([2]; 1 mM t-BHP)	MDA levels, percent of control (brain homogenates; 1 μM)	MDA levels, percent of control (brain homogenates; 5 μM)	MDA levels, percent of control (brain homogenates; 10 μM)	MDA levels, percent of control (brain homogenates; 25 μM)	protection against glucose and glucose oxidase (in words) [3]	protection against glucose and glucose oxidase ([3]; 40 μM)	protection against glucose and glucose oxidase ([3]; 80 μM)	peroxidase rate with t-BHP relative to C7 [2]	peroxidase activity toward t-BHP, percent of C7 [2]	inhibition of lipid peroxidation (in words) (brain homogenates)
[Cl][Mn]1[O]c2ccccc2C=NCCN=Cc2ccccc2[O]1 [Compound C7]	catalytic SOD activity	100	about 0.5%	110%	84%	22%	4%	–	–	–	–	–	–
COc1cccc2c1[O][Mn]([O]C(C)=O)[O]c1c(cccc1OC)C=NCCN=C2 [Compound C32]	–	96	–	104%	35%	13%	8%	more protective than C43	significant protection	complete protection	~3 fold	–	–
COc1cc(OC)c2c(c1)[O][Mn]([O]C(C)=O)[O]c1cc(OC)cc(OC)c1C=NCCN=C2 [Compound C35]	–	27	–	82%	5%	4%	3%	not cytoprotective	–	–	–	less than 2%	very potent
COc1cccc2c1[O][Mn]([Cl])[O]c1c(cccc1OC)C=NCCN=C2 [Compound C40]	–	96	–	–	–	–	–	–	significant protection	complete protection	–	–	–

— patent US7582786B2, “Synthetic catalytic free radical scavengers useful as antioxidants for prevention and therapy of disease” (Eukarion Inc., priority 1996, dated 2009)
